According to US20260355213A1, “TREATMENT OF INFECTIONS CAUSED BY INTRACELLULAR PATHOGENS” (Sheba Impact Ltd., priority 2023, published 2026):

Columns and labels:
caspase 3 = experiment: Caspase 3 activity in HeLa cells (Multiplex Activity Fluorometric Assay Kit); type: cell-based, human; conditions: HeLa cells infected with S. Typhimurium
Source text: (§1) One of the possible mechanisms that could explain the activity of the compounds in inhibiting infection by different pathogens is inducing programed cell death in infected cells. To examine this experimentally, the present inventors have used Caspase-3, Caspase-8 and Caspase-9 Multiplex Activity Fluorometric Assay Kit (ab219915) to monitor caspase 3, caspase 8 and caspase 9 activity in HeLa cells infected with S. Typhimurium in the presence and absence of the compounds.

[1] = tested on: Listeria monocytogenes in HeLa cells; experiment: Intracellular Listeria monocytogenes infection of HeLa cells (CFU at 6 h p.i.); type: cell-based; conditions: 10 μM
Description: 4×10^5 HeLa cells were seeded in a 24-well tissue culture treated plate and incubated for 24 h at 37 °C under 5% CO2 atmosphere. On the next day, cells were incubated for 3 h with fresh DMEM supplemented with the PCM-0094889, PCM-0086166, PCM-0004846, PCM-0103431, PCM-0095494, PCM-0095293, PCM-0001349, and PCM-0095564 compounds at a final concentration of 10 μM. overnight cultures of Listeria monocytogenes that were grown statically at 37 °C were washed and resuspended in PBS. Cell infection at am MOI of 1:50 was conducted by adding 20 μl of Listeria suspension to each well, following by incubation at 37 °C under 5% CO2 atmosphere. 30 min p.i. the cells were washed with PBS and the medium was replaced with fresh medium supplemented with 10 μM of the tested compounds. One h p.i., gentamycin was added to each well at a final concentration of 50 μg/ml. At 6 h p.i., the cells were washed with PBS and lysed with 250 μl DDW at room temperature. The cell lysates were then diluted in PBS and plated on LB plates for CFU count. Intracellular Listeria infection was calculated as the number of intracellular bacteria recovered at 6 h p.i., divided by the infecting inoculum (CFUs). Listeria infection in the presence of the compounds is shown relative to the number of intracellular bacteria that were recovered from cells that were not treated with the compounds. The charts show the mean and standard error of the mean (SEM) of six biological repeats in two independent experiments, biological repeats.

caspase 8 = experiment: Caspase 8 activity in HeLa cells (Multiplex Activity Fluorometric Assay Kit); type: cell-based, human; conditions: HeLa cells infected with S. Typhimurium
Source text: as §1

SMILES	caspase 3 activity in infected cells (caspase 3)	inhibition of Listeria monocytogenes infection of HeLa cells [1]	Caspase 8 activity in infected HeLa cells (caspase 8)
Cc1cc(Nc2ncnc3ccc(-c4ccc(CNCCS(C)(=O)=O)o4)cc23)ccc1Oc1ccn2ncnc2c1 [Compound 5]	significantly higher activity	able to actively inhibit	significantly higher activity
CN1CCN(CCOc2cc(OC3CCOCC3)c3c(Nc4c(Cl)ccc5c4OCO5)ncnc3c2)CC1 [Compound 1]		able to actively inhibit	
O=C(Nc1ccno1)Nc1ccc(Cl)cc1Cl [Compound 7]	significantly higher activity	able to actively inhibit	significantly higher activity
CC(C)(C)NCC(O)COc1ccccc1C1CCCC1 (stereo not shown) [Compound 2]	significantly higher activity		
CCc1cc2c(cc1CC)CC(NC[C@@H](O)c1ccc(O)c3[nH]c(=O)ccc13)C2 [Compound 8]	significantly higher activity	able to actively inhibit	
Cc1nc2c([nH]1)CCN(C(=O)c1ccc(NC(=O)c3ccccc3-c3ccccc3)cc1)c1ccccc1-2 [Compound 6]	significantly higher activity		
COc1ccccc1C1(CCNCc2ccc(N(C)C)cc2)CCOC(C)(C)C1 (stereo not shown) [Compound 4]	significantly higher activity	able to actively inhibit	
